Structures are written as SMILES. pEC50: −log10 of the molar value.

Usually ED50 stands for the dose at which the effect has come halfway, by size or by number of responders. Lower therefore signals an effect at a small dose. A word on the pEC50: it is −log10 of the EC50, conventionally taken in molar units.

For one series, the system named is Sprague-Dawley rats. As to the kind of experiment: animal or person. As to conditions: Rattus norvegicus, LORR in rats, tail vein; brackets = 95% confidence limit. Here is the method: Adult male Sprague-Dawley rats (250-300 g) were selected for the experiment. […] The anesthesia effects of the compounds were assessed in rats using a LORR assay and a period >30 s was considered as an indicator of general anesthesia.
Compound `CC(C)OC(=O)c1c(Br)nnn1[C@H](C)c1ccccc1` [Compound B115] displayed an ED50 of 0.5 to 1 mg/kg.

As for `C[C@H](c1ccccc1)n1nnc(Br)c1C(=O)OC1CC1` [Compound B116], the ED50 is 1 to 2 mg/kg.

With `C=CC(CC)OC(=O)c1cnnn1[C@H](C)c1ccccc1` (stereo partly shown) [Compound B13], the ED50 was in the range of 0.5 to 1 mg/kg.

Regarding `C=CC1(OC(=O)c2c(F)nnn2[C@H](C)c2ccccc2)COC1` [Compound B51], the ED50 lay within 1 to 2 mg/kg.

`CCOC(=O)c1c(Cl)nnn1[C@H](C)c1ccccc1` [Compound B65] had an ED50 of 0.5 to 1 mg/kg.

Compound `C=C=CC1(OC(=O)c2c(F)nnn2[C@H](C)c2ccccc2)COC1` [Compound B35] registered an ED50 of 0.04 to 0.5 mg/kg.

`C[C@H](c1ccccc1)n1nncc1C(=O)OC1CC1` [Compound B18] displayed an ED50 of 1 to 2 mg/kg.

In the case of `CO[C@H]1C[C@@H](OC(=O)c2cnnn2[C@H](C)c2ccccc2)C1` [Compound B8], the ED50 lay in the range of 0.5 to 1 mg/kg.

In turn, `CC(=O)C1=C(OC(=O)c2cnnn2[C@H](C)c2ccccc2)CCCC1` [Compound B15] had an ED50 of 0.5 to 1 mg/kg.

As to `C=C=CC1(OC(=O)c2c(I)nnn2[C@H](C)c2ccccc2)CCCCC1` [Compound B137], the ED50 is 1 to 2 mg/kg.

Still in this series, the particulars now being: rats.
On to `CC(C)OC(=O)c1c(Br)nnn1[C@H](C)c1ccccc1` [Compound B115], for which the Approximate therapeutic index is reported as over 25 and the Minimal lethal dose is reported as over 18 mg/kg.

The compound `C[C@H](c1ccccc1)n1nnc(Br)c1C(=O)OC1CC1` [Compound B116] displayed an Approximate therapeutic index of over 9 and a Minimal lethal dose of over 12 mg/kg.

Regarding `C=CC(CC)OC(=O)c1cnnn1[C@H](C)c1ccccc1` (stereo partly shown) [Compound B13], the Approximate therapeutic index is given as over 2 and the Minimal lethal dose is on record as over 1 mg/kg.

Regarding `C=CC1(OC(=O)c2c(F)nnn2[C@H](C)c2ccccc2)COC1` [Compound B51], the Approximate therapeutic index is given as over 12 and the Minimal lethal dose is reported as over 14 mg/kg.

Take `CCOC(=O)c1c(Cl)nnn1[C@H](C)c1ccccc1` [Compound B65]: the Approximate therapeutic index is over 13 and the Minimal lethal dose is listed as over 9 mg/kg.

In the case of `C=C=CC1(OC(=O)c2c(F)nnn2[C@H](C)c2ccccc2)COC1` [Compound B35], the Approximate therapeutic index is recorded as over 29 and the Minimal lethal dose was over 8 mg/kg.

Take `C[C@H](c1ccccc1)n1nncc1C(=O)OC1CC1` [Compound B18]: the Approximate therapeutic index is over 12 and the Minimal lethal dose is given as over 14 mg/kg.

The compound `CO[C@H]1C[C@@H](OC(=O)c2cnnn2[C@H](C)c2ccccc2)C1` [Compound B8] gave an Approximate therapeutic index of over 9 and a Minimal lethal dose of over 8 mg/kg.

For the compound `CC(=O)C1=C(OC(=O)c2cnnn2[C@H](C)c2ccccc2)CCCC1` [Compound B15], the Approximate therapeutic index was over 9 and the Minimal lethal dose is reported as over 9 mg/kg.

Consider `C=C=CC1(OC(=O)c2c(I)nnn2[C@H](C)c2ccccc2)CCCCC1` [Compound B137], for which the Approximate therapeutic index is over 9 and the Minimal lethal dose was over 12 mg/kg.

A further series deals with H295R cell line. As to the kind of experiment: Adrenocortical function in vitro test: secretion of cortisol and corticosterone, Group B compounds. As to conditions: H295R cells. The series is classed as cell-based.
For `CC(C)OC(=O)c1c(Br)nnn1[C@H](C)c1ccccc1` [Compound B115], the “Corticosterone as an indicator to determine the presence of inhibition” value (shortened to “Corticosterone as an indicator … of inhibition”) amounted to 0 and the “Cortisol as an indicator to determine the presence of inhibition” value (“Cortisol as an indicator … of inhibition” for short) came to 0.

As to `C[C@H](c1ccccc1)n1nnc(Br)c1C(=O)OC1CC1` [Compound B116], the “Corticosterone as an indicator … of inhibition” value came out at 0 and the “Cortisol as an indicator … of inhibition” value worked out at 0.

As for `C=CC(CC)OC(=O)c1cnnn1[C@H](C)c1ccccc1` (stereo partly shown) [Compound B13], the “Corticosterone as an indicator … of inhibition” value was 0 and the “Cortisol as an indicator … of inhibition” value was 0.

On to `C=CC1(OC(=O)c2c(F)nnn2[C@H](C)c2ccccc2)COC1` [Compound B51], for which the “Corticosterone as an indicator … of inhibition” value worked out at 0 and the “Cortisol as an indicator … of inhibition” value came to 0.

Turning to `CCOC(=O)c1c(Cl)nnn1[C@H](C)c1ccccc1` [Compound B65], the “Corticosterone as an indicator … of inhibition” value is on record as 0 and the “Cortisol as an indicator … of inhibition” value was found to be 0.

`C=C=CC1(OC(=O)c2c(F)nnn2[C@H](C)c2ccccc2)COC1` [Compound B35]: the “Corticosterone as an indicator … of inhibition” value came to 0 and the “Cortisol as an indicator … of inhibition” value was determined as 0.

On to `C[C@H](c1ccccc1)n1nncc1C(=O)OC1CC1` [Compound B18], for which the “Corticosterone as an indicator … of inhibition” value is 0 and the “Cortisol as an indicator … of inhibition” value was found to be 0.

On to `CO[C@H]1C[C@@H](OC(=O)c2cnnn2[C@H](C)c2ccccc2)C1` [Compound B8], for which the “Corticosterone as an indicator … of inhibition” value was determined as 0 and the “Cortisol as an indicator … of inhibition” value is 0.

In the case of `CC(=O)C1=C(OC(=O)c2cnnn2[C@H](C)c2ccccc2)CCCC1` [Compound B15], the “Corticosterone as an indicator … of inhibition” value came to 0 and the “Cortisol as an indicator … of inhibition” value was found to be 0.

For the compound `C=C=CC1(OC(=O)c2c(I)nnn2[C@H](C)c2ccccc2)CCCCC1` [Compound B137], the “Corticosterone as an indicator … of inhibition” value is reported as 0 and the “Cortisol as an indicator … of inhibition” value worked out at 0.

The same series, now with this note: Homo sapiens, NCI-H295R, H295R cells, 0.1-10000 nM, HPLC-MS/MS; read-out: EC50 (Corticosterone).
On to `CC(C)OC(=O)c1c(Br)nnn1[C@H](C)c1ccccc1` [Compound B115], for which the pEC50 was under 5.52.

Turning to `C[C@H](c1ccccc1)n1nnc(Br)c1C(=O)OC1CC1` [Compound B116], the pEC50 was under 5.52.

Turning to `C=CC(CC)OC(=O)c1cnnn1[C@H](C)c1ccccc1` (stereo partly shown) [Compound B13], the pEC50 is under 6.00.

Turning to `C=CC1(OC(=O)c2c(F)nnn2[C@H](C)c2ccccc2)COC1` [Compound B51], the pEC50 is under 6.00.

Take `CCOC(=O)c1c(Cl)nnn1[C@H](C)c1ccccc1` [Compound B65]: the pEC50 was under 6.00.

In the case of `C=C=CC1(OC(=O)c2c(F)nnn2[C@H](C)c2ccccc2)COC1` [Compound B35], the pEC50 is under 6.00.

Regarding `C[C@H](c1ccccc1)n1nncc1C(=O)OC1CC1` [Compound B18], the pEC50 was under 7.00.

As to `CO[C@H]1C[C@@H](OC(=O)c2cnnn2[C@H](C)c2ccccc2)C1` [Compound B8], the pEC50 was under 6.00.

Consider `CC(=O)C1=C(OC(=O)c2cnnn2[C@H](C)c2ccccc2)CCCC1` [Compound B15], for which the pEC50 is under 6.00.

With `C=C=CC1(OC(=O)c2c(I)nnn2[C@H](C)c2ccccc2)CCCCC1` [Compound B137], the pEC50 was under 6.00.

Staying with this series, now noted: Homo sapiens, NCI-H295R, H295R cells, 0.1-10000 nM, HPLC-MS/MS; read-out: EC50 (Cortisol).
Turning to `CC(C)OC(=O)c1c(Br)nnn1[C@H](C)c1ccccc1` [Compound B115], the pEC50 was under 5.52.

For the compound `C[C@H](c1ccccc1)n1nnc(Br)c1C(=O)OC1CC1` [Compound B116], the pEC50 was under 5.52.

For the compound `C=CC(CC)OC(=O)c1cnnn1[C@H](C)c1ccccc1` (stereo partly shown) [Compound B13], the pEC50 was under 6.00.

With `C=CC1(OC(=O)c2c(F)nnn2[C@H](C)c2ccccc2)COC1` [Compound B51], the pEC50 was under 6.00.

For the compound `CCOC(=O)c1c(Cl)nnn1[C@H](C)c1ccccc1` [Compound B65], the pEC50 is under 6.00.

Take `C=C=CC1(OC(=O)c2c(F)nnn2[C@H](C)c2ccccc2)COC1` [Compound B35]: the pEC50 was under 6.00.

`C[C@H](c1ccccc1)n1nncc1C(=O)OC1CC1` [Compound B18]: the pEC50 is under 7.00.

Consider `CO[C@H]1C[C@@H](OC(=O)c2cnnn2[C@H](C)c2ccccc2)C1` [Compound B8], for which the pEC50 was under 6.00.

In the case of `CC(=O)C1=C(OC(=O)c2cnnn2[C@H](C)c2ccccc2)CCCC1` [Compound B15], the pEC50 is under 6.00.

As to `C=C=CC1(OC(=O)c2c(I)nnn2[C@H](C)c2ccccc2)CCCCC1` [Compound B137], the pEC50 is under 6.00.
